Where “and” joins values, the source holds several entries; their conditions need not be identical. Identical values can stand only once.
What was measured:
P388 leukemia = assay: ip P388 leukemia mouse model; assay type: in vivo, mice (B6D2F1); details: for MTD (maximally tolerated dose): B6D2F female mice, ip qDX5; for ILS max (maximum increase in lifespan): mice bearing ip P388 leukemia, ip days 1-5 at MTD, slash-separated figures are separate experiments
Experimental: This tumor system is widely accepted as an antitumor agent screening tool because it is sensitive to virtually all of the clinically active antineoplastic agents; quantitative and reproducible; amenable for large-scale screening; and predictive for activity in other animal tumor models.
10^6 P388 leukemia cells are inoculated ip in B6D2F1 mice. Twenty-four hours later, if the tumor inoculum proves to be free of bacterial contamination (as determined by 24 hours incubation in thioglycollate broth), animals are randomized into groups of 6 and housed in shoebox cages. […] An equal volume of saline or water is added; if the drug comes out of solution an equal volume of Cremophor (polyethoxylated castor oil) is added and then saline or water, as to a concentration such that the desired dose is delivered in 0.5 ml. The final concentration of DMA, ethanol or Cremophor is 10 percent. Dilutions for lower doses are made with saline or water so that there is a decreasing proportion of organic solvents in the vehicle with decreasing dosage. […] Formulations are prepared immediately prior to injection. The Formula (I) and Formula (II) compounds are administered ip on Days 1 through 5 (i.e., treatment is initiated 24 hrs after tumor inoculation). Each experiment includes three groups of 6 animals as untreated controls and animals treated with a positive control, cisplatin, at two dose levels. Animals are weighed as a group on Days 1, 5 and 9 and average weight change (Δwt.) is used as a reflection of toxicity. Each experiment also includes an inoculum titration--groups of 8 mice inoculated ip with 10^5 to 10^0 P388 leukemia cells. The titration is used as a quality control check for the performance of the tumor model. Animals are monitored daily for mortality and experiments are terminated after 45 days. The endpoint is median survival time (MST) and increase in lifespan (ILS) which is the percentage of increase in MST relative to untreated controls.

[1] = solubility in 9:1 water:ethanol (HPLC of filtrate); details: stirred 15 hours, 0.45 μm PTFE filter, HPLC
Experimental: Such solubility was determined as follows: The compound in question was dissolved or suspended in absolute ethanol (250 mg solid per 1.0 ml ethanol). To the resulting solution or suspension, water (9.0 times the volume of ethanol) was added. This suspension was stirred vigorously for 15 hours, then filtered through a 0.45 μm poly(tetrafluoroethylene) (PTFE) filter. […] The HPLC system was as follows:
Column PLRP-S, 5μm, obtained from Polymer Laboratories, Inc.
Mobile Phase 9:1 acetonitrile:0.1% tetra-n-butylammonium hydrogen sulfate (50° C., 1.0 ml-min-^-1)
Detection Ultraviolet (250 nm)

B16 melanoma = assay: in vivo ip B16 melanoma assay; design: species or system mice (B6D2F1); details: ip qDX10
Experimental: Daily treatment is begun 24 hours after tumor implantation and is continued daily for ten (10) days. The route of drug administration is ip. The mice are monitored daily for survival for sixty (60) days. Antitumor activity is assessed by prolongation of median survival time. An ILS of ≥25% indicates activity in this tumor model.
^(b) maximally tolerated dose for B6D2F1 mice on an ip qDX10
^(c) maximum increase in lifespan produced in mice bearing ip B16

| Compound | MTD (maximally tolerated dose) (P388 leukemia) | ILS max (maximum increase in lifespan) (P388 leukemia) | Solubility in 9:1 Water:Ethanol [1] | MTD (maximally tolerated dose) (B16 melanoma; B6D2F1 mice) | ILS (maximum increase in lifespan) (B16 melanoma; mice bearing ip B16 melanoma, slash-separated figures are separate experiments) |
| --- | --- | --- | --- | --- | --- |
| O=[N+]([O-])[O-].[Au+].c1ccc(P(CCP(c2ccccc2)c2ccccc2)c2ccccc2)cc1.c1ccc(P(CCP(c2ccccc2)c2ccccc2)c2ccccc2)cc1 [compound 5, Bis[1,2-bis(diphenylphosphino)ethane]Gold(I) Nitrate] | 3 mg/kg | 90 ± 17% | 0.03 mg/mL |  |  |
| Fc1cccc(P(CCP(c2cccc(F)c2)c2cccc(F)c2)c2cccc(F)c2)c1.Fc1cccc(P(CCP(c2cccc(F)c2)c2cccc(F)c2)c2cccc(F)c2)c1.[Au+].[Cl-] [compound 7, Bis[1,2-bis[bis(. Phosphino]ethane]Gold(I) Chloride] |  | 45% and 55% |  |  |  |
| CCP(CC)CCP(c1ccccc1)c1ccccc1.CCP(CC)CCP(c1ccccc1)c1ccccc1.[Cl-].[Cu+] [compound 9] | 1.5 mg/kg | 48% and 45% |  |  |  |
| CCP(CC)CCP(CC)CC.CCP(CC)CCP(CC)CC.F[P-](F)(F)(F)(F)F.[Au+] [compound 10, Bis[1,2-bis(diethylphosphino)ethane]Gold(I) Hexafluorophosphate] | 4 mg/kg | 40% and 30% |  |  |  |
| [Cl-].[Cu+].c1ccc(P(CCCP(c2ccccc2)c2ccccc2)c2ccccc2)cc1.c1ccc(P(CCCP(c2ccccc2)c2ccccc2)c2ccccc2)cc1 [compound 12, Bis[1,3-bis(diphenylphosphino)propane]Copper(I) Chloride] | 2 mg/kg | 92 ± 15% |  | 1 mg/kg | 32% and 47% |
| CS(=O)(=O)[O-].[Au+].c1ccc(P(CCP(c2ccccc2)c2ccccc2)c2ccccc2)cc1.c1ccc(P(CCP(c2ccccc2)c2ccccc2)c2ccccc2)cc1 [compound 14, Bis[1,2-bis(diphenylphosphino)ethane]gold(I) methanesulfonate] | 2 mg/kg | 81 ± 17% | 0.03 mg/mL |  |  |
| O=S(=O)([O-])[O-].c1ccc([PH]2(c3ccccc3)CC[PH](c3ccccc3)(c3ccccc3)[Au+]23[PH](c2ccccc2)(c2ccccc2)CC[PH]3(c2ccccc2)c2ccccc2)cc1.c1ccc([PH]2(c3ccccc3)CC[PH](c3ccccc3)(c3ccccc3)[Au+]23[PH](c2ccccc2)(c2ccccc2)CC[PH]3(c2ccccc2)c2ccccc2)cc1 (stereo not shown) [compound 17, Bis{bis[1,2-bis(diphenylphosphino)ethane]gold(I)} sulfate] | 2 mg/kg | 74% and 50% | 0.03 mg/mL |  |  |
| N#C[O-].[Au+].c1ccc(P(CCP(c2ccccc2)c2ccccc2)c2ccccc2)cc1.c1ccc(P(CCP(c2ccccc2)c2ccccc2)c2ccccc2)cc1 [compound 18, Bis[1,2-bis(diphenylphosphino)ethane]gold(I) cyanate] | 2 mg/kg | 84% and 50% | 0.06 mg/mL |  |  |
| O=S(=O)([O-])C(F)(F)F.[Au+].c1ccc(P(CCP(c2ccccc2)c2ccccc2)c2ccccc2)cc1.c1ccc(P(CCP(c2ccccc2)c2ccccc2)c2ccccc2)cc1 [compound 20, Bis[1,2-bis(diphenylphosphino)ethane]gold(I) trifluoromethanesulfonate] | 2 mg/kg | 63% and 75% | 0.02 mg/mL |  |  |
| Bis[1,2-bis(diethylphosphino)ethane]Silver(I) Nitrate [compound 11] | 0.5 mg/kg | 50% and 40% |  |  |  |
| Bis[1,2-bis[bis(4-fluorophenyl)phosphino]ethane Gold(I) Chloride [compound 6] | 3 mg/kg | 55% and 50% |  |  |  |

— US5037812A, “Tumor cell growth-inhibiting pharmaceutical compositions containing phosphino-hydrocarbon-gold, silver or copper complexes” (priority 1986, dated 1991)
